Laboratory results taken from patent US8481586B2, “Pyrrolo[2,3-a] carbazoles and use thereof as PIM kinase inhibitors” (Centre National de la Recherche Scientifique, priority 2008, dated 2013).

How the values were obtained:
Experiment in all cases: kinase panel residual activity test
Assay type in all cases: biochemical
Settings in all cases: compound at 10 μM
Aurora C = Aurora C (Homo sapiens (Human), UniProt Q9UQB9)
From the text: (§1) MKK1, ERK 1, ERK 2, JNK1, JNK2, JNK3, p38a MAPK, p38b MAPK, p38g MAPK, p38s MAPK, ERK8, RSK1, RSK2, PDK1, PKBa, PKBb, SGK1, S6K1, PKA, ROCK2, PRK2, PKCa, PKC zeta, PKD1, MSK1, MNK1, MNK2, MAPKAP-K2, MAPKAP-K3, PRAK, CAMKKa, CAMKKb, CAMK1, SmMLCK, PHK, CHK1, CHK2, GSK3b, CDK2/cyclin A, PLK1, PLK1 (Okadaic acid), Aurora B, Aurora C, AMPK, MARK3, BRSK2, MELK, CK1, CK2, NEK2a, NEK6, NEK7, IKKb, PIM-1, PIM-2, PIM-3, SRPK1, MST2, EF2K, HIPK2, HIPK3, PAK-4, PAK5, PAK6, Src, Lck, CSK.

p38s MAPK = p38s MAPK (Homo sapiens (Human), UniProt O15264)
From the text: as §1

p38b MAPK = p38b MAPK (Homo sapiens (Human), UniProt Q15759)
From the text: as §1

PLK1 (Okadaic acid) = PLK1 (Okadaic acid) (Homo sapiens (Human), UniProt P53350)
From the text: as §1

JNK2 = JNK2 (Homo sapiens (Human), UniProt P45984)
From the text: as §1

IKKb = IKKb (Homo sapiens (Human), UniProt O14920)
From the text: as §1

MAPKAP-K3 = MAPKAP-K3 (Homo sapiens (Human), UniProt Q16644)
From the text: as §1

CSK = CSK (Homo sapiens (Human), UniProt P41240)
From the text: as §1

ERK8 = ERK8 (Homo sapiens (Human), UniProt Q8TD08)
From the text: as §1

p38a MAPK = p38a MAPK (Homo sapiens (Human), UniProt Q16539)
From the text: as §1

PDK1 = PDK1 (Homo sapiens (Human), UniProt O15530)
From the text: as §1

ERK1 = ERK1 (Homo sapiens (Human), UniProt P27361)
From the text: as §1

PKD1 = PKD1 (Homo sapiens (Human), UniProt Q15139)
From the text: as §1

GSK3b = GSK3b (Homo sapiens (Human), UniProt P49841)
From the text: as §1

PKBa = PKBa (Homo sapiens (Human), UniProt P31749)
From the text: as §1

MST2 = MST2 (Homo sapiens (Human), UniProt Q13188)
From the text: as §1

CAMKKa = CAMKKa (Homo sapiens (Human), UniProt Q8N5S9)
From the text: as §1

CAMKKb = CAMKKb (Homo sapiens (Human), UniProt Q96RR4)
From the text: as §1

PRAK = PRAK (Homo sapiens (Human), UniProt Q8IW41)
From the text: as §1

S6K1 = S6K1 (Homo sapiens (Human), UniProt P23443)
From the text: as §1

PAK4 = PAK4 (Homo sapiens (Human), UniProt O96013)
From the text: as §1

HIPK2 = HIPK2 (Homo sapiens (Human), UniProt Q9H2X6)
From the text: as §1

PKBb = PKBb (Homo sapiens (Human), UniProt P31751)
From the text: as §1

NEK2a = NEK2a (Homo sapiens (Human), UniProt P51955)
From the text: as §1

CAMK1 = CAMK1 (Homo sapiens (Human), UniProt Q14012)
From the text: as §1

PKC zeta = PKC zeta (Homo sapiens (Human), UniProt Q05513)
From the text: as §1

JNK1 = JNK1 (Homo sapiens (Human), UniProt P45983)
From the text: as §1

MAPKAP-K2 = MAPKAP-K2 (Homo sapiens (Human), UniProt P49137)
From the text: as §1

PHK = test system: PHK
From the text: as §1

PLK1 = PLK1 (Homo sapiens (Human), UniProt P53350)
From the text: as §1

MSK1 = MSK1 (Homo sapiens (Human), UniProt O75582)
From the text: as §1

Src = Src (Homo sapiens (Human), UniProt P12931)
From the text: as §1

PKCa = PKCa (Homo sapiens (Human), UniProt P17252)
From the text: as §1

CHK1 = CHK1 (Homo sapiens (Human), UniProt O14757)
From the text: as §1

PKA = PKA (Homo sapiens (Human), UniProt P17612)
From the text: as §1

HIPK3 = HIPK3 (Homo sapiens (Human), UniProt Q9H422)
From the text: as §1

PRK2 = PRK2 (Homo sapiens (Human), UniProt Q16513)
From the text: as §1

Chain of MAPKAP-K3 (Q16644 whole entry, species assumed): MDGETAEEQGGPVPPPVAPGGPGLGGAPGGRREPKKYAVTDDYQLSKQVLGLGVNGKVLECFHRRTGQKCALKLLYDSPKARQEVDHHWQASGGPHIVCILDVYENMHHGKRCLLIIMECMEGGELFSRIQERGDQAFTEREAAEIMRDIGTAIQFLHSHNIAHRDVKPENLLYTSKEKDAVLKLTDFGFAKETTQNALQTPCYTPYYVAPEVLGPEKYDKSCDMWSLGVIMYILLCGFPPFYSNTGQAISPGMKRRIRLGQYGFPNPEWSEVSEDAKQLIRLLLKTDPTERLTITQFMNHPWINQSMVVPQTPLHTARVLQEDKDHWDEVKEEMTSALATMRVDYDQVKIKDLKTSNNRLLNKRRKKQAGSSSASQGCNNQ
Chain of ERK8 (Q8TD08 whole entry, species assumed): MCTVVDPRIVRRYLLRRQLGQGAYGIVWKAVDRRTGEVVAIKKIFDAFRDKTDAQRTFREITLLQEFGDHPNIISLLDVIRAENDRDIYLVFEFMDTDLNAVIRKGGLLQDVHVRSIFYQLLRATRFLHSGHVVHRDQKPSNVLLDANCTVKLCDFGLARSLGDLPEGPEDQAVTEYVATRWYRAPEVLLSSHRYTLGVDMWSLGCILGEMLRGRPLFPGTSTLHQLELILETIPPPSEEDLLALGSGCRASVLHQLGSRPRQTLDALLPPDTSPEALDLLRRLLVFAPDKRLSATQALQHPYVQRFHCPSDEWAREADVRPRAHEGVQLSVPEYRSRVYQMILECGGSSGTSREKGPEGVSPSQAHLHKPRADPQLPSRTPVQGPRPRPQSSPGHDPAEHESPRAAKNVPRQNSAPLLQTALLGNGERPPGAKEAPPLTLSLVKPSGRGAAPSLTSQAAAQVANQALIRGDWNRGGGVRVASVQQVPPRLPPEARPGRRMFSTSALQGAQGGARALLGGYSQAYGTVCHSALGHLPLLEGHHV
Chain of PKBa (P31749 whole entry): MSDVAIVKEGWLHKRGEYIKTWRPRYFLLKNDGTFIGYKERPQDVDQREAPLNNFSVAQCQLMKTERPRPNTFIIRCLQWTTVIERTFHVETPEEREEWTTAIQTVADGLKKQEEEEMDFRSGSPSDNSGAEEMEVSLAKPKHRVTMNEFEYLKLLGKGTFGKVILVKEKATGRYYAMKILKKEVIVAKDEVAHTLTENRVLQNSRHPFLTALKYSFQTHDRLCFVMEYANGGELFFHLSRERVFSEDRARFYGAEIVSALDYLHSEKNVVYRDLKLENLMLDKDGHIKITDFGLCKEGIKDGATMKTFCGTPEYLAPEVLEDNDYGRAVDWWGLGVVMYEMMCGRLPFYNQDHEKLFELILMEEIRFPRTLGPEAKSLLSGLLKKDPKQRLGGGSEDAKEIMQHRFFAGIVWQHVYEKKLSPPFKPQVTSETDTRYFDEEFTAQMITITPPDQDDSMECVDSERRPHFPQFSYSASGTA
Chain of CAMKKa (Q8N5S9 whole entry, species assumed): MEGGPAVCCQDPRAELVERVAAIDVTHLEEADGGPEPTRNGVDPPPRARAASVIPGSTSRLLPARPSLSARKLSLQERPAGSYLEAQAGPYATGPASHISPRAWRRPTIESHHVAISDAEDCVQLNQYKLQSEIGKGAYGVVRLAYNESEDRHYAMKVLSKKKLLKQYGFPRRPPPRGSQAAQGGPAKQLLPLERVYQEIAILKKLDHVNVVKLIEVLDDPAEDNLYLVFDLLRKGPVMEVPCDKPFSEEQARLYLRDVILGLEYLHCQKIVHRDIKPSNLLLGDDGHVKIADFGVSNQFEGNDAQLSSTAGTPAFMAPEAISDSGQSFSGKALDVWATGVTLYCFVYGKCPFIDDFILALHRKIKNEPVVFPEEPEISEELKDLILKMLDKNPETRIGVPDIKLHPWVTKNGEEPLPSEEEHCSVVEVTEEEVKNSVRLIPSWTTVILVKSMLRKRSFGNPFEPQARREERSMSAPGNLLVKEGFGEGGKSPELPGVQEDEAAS
Chain of JNK2 (P45984 whole entry, species assumed): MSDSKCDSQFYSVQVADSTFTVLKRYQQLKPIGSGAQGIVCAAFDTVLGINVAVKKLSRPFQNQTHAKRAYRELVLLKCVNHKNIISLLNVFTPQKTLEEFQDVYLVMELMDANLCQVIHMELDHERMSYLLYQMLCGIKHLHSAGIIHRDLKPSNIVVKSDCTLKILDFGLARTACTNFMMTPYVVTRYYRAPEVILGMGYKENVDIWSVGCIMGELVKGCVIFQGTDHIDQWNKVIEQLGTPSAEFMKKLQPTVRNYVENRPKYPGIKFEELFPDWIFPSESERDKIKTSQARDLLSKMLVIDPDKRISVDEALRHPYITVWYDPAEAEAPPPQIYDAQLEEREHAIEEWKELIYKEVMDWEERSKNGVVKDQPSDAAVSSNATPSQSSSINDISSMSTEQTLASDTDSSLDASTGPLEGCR
Chain of p38a MAPK (Q16539 whole entry): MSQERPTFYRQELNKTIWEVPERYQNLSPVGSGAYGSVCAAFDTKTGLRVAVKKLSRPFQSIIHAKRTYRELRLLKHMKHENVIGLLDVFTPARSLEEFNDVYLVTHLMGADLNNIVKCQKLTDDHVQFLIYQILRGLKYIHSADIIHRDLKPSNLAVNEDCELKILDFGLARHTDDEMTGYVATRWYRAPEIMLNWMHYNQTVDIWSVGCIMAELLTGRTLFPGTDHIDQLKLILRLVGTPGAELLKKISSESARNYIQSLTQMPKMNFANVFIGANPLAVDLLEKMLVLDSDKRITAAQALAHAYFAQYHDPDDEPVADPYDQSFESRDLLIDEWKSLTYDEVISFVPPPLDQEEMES
Chain of Aurora C (Q9UQB9 whole entry): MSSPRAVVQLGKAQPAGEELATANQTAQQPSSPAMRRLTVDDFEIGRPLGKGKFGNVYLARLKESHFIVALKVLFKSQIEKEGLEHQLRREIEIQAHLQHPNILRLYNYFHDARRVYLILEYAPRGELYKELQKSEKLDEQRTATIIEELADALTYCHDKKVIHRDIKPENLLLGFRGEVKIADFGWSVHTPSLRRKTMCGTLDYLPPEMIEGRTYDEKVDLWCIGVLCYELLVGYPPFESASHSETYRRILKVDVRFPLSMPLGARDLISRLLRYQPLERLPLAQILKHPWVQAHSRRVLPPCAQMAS
Chain of NEK2a (P51955 whole entry, species assumed): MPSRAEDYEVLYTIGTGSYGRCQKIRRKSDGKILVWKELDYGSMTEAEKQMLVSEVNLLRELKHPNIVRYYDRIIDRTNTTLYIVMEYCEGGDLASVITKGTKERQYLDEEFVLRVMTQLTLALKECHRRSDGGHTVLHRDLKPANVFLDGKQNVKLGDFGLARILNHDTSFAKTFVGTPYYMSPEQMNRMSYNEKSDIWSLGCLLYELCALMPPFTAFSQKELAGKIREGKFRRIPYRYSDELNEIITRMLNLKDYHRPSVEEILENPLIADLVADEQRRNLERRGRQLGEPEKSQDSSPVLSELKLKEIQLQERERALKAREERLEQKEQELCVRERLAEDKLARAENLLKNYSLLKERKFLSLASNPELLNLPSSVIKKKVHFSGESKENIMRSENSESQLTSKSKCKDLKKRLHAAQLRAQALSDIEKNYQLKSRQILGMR
Chain of p38s MAPK (O15264 whole entry): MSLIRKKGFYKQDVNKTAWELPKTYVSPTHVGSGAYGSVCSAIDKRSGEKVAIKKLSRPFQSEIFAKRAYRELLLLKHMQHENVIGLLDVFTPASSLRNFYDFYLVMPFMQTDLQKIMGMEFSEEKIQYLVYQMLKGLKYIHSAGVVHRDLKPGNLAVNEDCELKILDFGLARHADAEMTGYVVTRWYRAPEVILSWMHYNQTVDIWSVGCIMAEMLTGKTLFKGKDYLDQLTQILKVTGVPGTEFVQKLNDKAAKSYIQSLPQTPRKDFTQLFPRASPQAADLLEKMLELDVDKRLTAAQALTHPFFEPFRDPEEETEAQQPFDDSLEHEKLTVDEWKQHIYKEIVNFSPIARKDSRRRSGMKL
Chain of MSK1 (O75582 whole entry, species assumed): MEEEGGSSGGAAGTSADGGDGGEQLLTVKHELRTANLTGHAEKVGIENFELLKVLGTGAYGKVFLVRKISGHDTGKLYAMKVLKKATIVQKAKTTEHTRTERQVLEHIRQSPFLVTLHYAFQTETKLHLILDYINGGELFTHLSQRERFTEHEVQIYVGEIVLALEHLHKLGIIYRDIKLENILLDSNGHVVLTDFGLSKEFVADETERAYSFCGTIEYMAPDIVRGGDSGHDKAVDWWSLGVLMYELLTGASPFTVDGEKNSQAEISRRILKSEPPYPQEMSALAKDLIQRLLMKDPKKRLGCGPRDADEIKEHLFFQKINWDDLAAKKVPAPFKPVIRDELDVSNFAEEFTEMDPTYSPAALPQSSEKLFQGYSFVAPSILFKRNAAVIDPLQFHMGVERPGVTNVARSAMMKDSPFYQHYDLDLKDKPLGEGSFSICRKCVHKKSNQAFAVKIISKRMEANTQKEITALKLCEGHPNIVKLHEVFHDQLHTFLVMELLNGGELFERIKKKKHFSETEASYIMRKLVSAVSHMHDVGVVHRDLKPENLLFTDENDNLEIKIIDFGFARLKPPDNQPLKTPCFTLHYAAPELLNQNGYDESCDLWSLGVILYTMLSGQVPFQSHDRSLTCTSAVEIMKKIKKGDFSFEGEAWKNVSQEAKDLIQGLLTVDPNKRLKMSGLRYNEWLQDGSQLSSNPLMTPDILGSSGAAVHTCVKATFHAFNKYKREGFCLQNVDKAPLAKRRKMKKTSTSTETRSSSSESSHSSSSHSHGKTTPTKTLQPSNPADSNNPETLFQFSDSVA

SMILES	remaining activity at 10 µM (Aurora C) [%]	remaining activity at 10 µM (p38s MAPK) [%]	remaining activity at 10 µM (p38b MAPK) [%]	remaining activity at 10 µM (PLK1 (Okadaic acid)) [%]	remaining activity at 10 µM (JNK2) [%]	remaining activity at 10 µM (IKKb) [%]	remaining activity at 10 µM (MAPKAP-K3) [%]	remaining activity at 10 µM (CSK) [%]	remaining activity at 10 µM (ERK8) [%]	remaining activity at 10 µM (p38a MAPK) [%]	remaining activity at 10 µM (PDK1) [%]	remaining activity at 10 µM (ERK1) [%]	remaining activity at 10 µM (PKD1) [%]	remaining activity at 10 µM (GSK3b) [%]	remaining activity at 10 µM (PKBa) [%]	remaining activity at 10 µM (MST2) [%]	remaining activity at 10 µM (CAMKKa) [%]	remaining activity at 10 µM (CAMKKb) [%]	remaining activity at 10 µM (PRAK) [%]	remaining activity at 10 µM (S6K1) [%]	further results
c1ccc2c(c1)[nH]c1c2ccc2cc[nH]c21 [Example 2, 1,10-dihydropyrrolo[2,3-a]carbazole]	85	78	100	103	118	106	89	98	55	108	86	108	83	111	120	82	76	93	97	89	remaining activity at 10 µM (PAK4): 84%; remaining activity at 10 µM (HIPK2): 59%; remaining activity at 10 µM (PKBb): 107%; remaining activity at 10 µM (NEK2a): 104%; remaining activity at 10 µM (CAMK1): 29%; remaining activity at 10 µM (PKC zeta): 91%; remaining activity at 10 µM (JNK1): 102%; remaining activity at 10 µM (MAPKAP-K2): 118%; % residual activity PHK (PHK): 90%; remaining activity at 10 µM (PLK1): 111%; remaining activity at 10 µM (MSK1): 90%; remaining activity at 10 µM (Src): 98%; remaining activity at 10 µM (PKCa): 111%; remaining activity at 10 µM (CHK1): 123%; remaining activity at 10 µM (PKA): 95%; remaining activity at 10 µM (HIPK3): 97%; remaining activity at 10 µM (PRK2): 95%
O=Cc1c[nH]c2c1ccc1c3ccccc3[nH]c12 [Example 3, 1,10-dihydropyrrolo[2,3-a]carbazole-3-carbaldehyde]	79	92	80	83	128	71	69	74	20	102	76	87	28	88	96	63	42	56	72	38	remaining activity at 10 µM (PAK4): 88%; remaining activity at 10 µM (HIPK2): 25%; remaining activity at 10 µM (PKBb): 98%; remaining activity at 10 µM (NEK2a): 88%; remaining activity at 10 µM (CAMK1): 71%; remaining activity at 10 µM (PKC zeta): 83%; remaining activity at 10 µM (JNK1): 102%; remaining activity at 10 µM (MAPKAP-K2): 84%; % residual activity PHK (PHK): 33%; remaining activity at 10 µM (PLK1): 91%; remaining activity at 10 µM (MSK1): 71%; remaining activity at 10 µM (Src): 85%; remaining activity at 10 µM (PKCa): 84%; remaining activity at 10 µM (CHK1): 97%; remaining activity at 10 µM (PKA): 60%; remaining activity at 10 µM (HIPK3): 64%; remaining activity at 10 µM (PRK2): 31%
NC(=O)c1c[nH]c2c1ccc1c3ccccc3[nH]c12 [Example 5, 1,10-dihydropyrrolo[2,3-a]carbazole-3-carboxamide]	61	76	92	79	115	80	75	65	46	96	67	71	19	91	97	76	75	79	85	72	remaining activity at 10 µM (PAK4): 16%; remaining activity at 10 µM (HIPK2): 42%; remaining activity at 10 µM (PKBb): 103%; remaining activity at 10 µM (NEK2a): 106%; remaining activity at 10 µM (CAMK1): 80%; remaining activity at 10 µM (PKC zeta): 78%; remaining activity at 10 µM (JNK1): 106%; remaining activity at 10 µM (MAPKAP-K2): 92%; % residual activity PHK (PHK): 43%; remaining activity at 10 µM (PLK1): 100%; remaining activity at 10 µM (MSK1): 91%; remaining activity at 10 µM (Src): 96%; remaining activity at 10 µM (PKCa): 80%; remaining activity at 10 µM (CHK1): 113%; remaining activity at 10 µM (PKA): 80%; remaining activity at 10 µM (HIPK3): 87%; remaining activity at 10 µM (PRK2): 54%
